EP2292225A1 (priority 1997, dated 1998)

Legend:
[1] = Biodistribution after i.p. injection (HPLC); type: in vivo, mice
Procedure: Biodistribution of Cytochalasin B. To determine the biodistribution of cytochalasin B, mice were injected (i.p.) with 50 mg/kg cytochalasin B. Control mice were injected with DMSO/Tween 20/carboxymethyl cellulose ("vehicle"). The mice were sacrificed at 3, 12, 24 and 72 hours after cytochalasin B or vehicle administration. Organs were removed, homogenized, extracted and the amount of cytochalasin B in tissues quantitated by HPLC. About 75% of the cytochalasin B remained in the peritoneal cavity or at the injection site.

[2] = Chronic (seven days) intravenous toxicity study; type: in vivo, Sprauge-Dawley rats; settings: 10080 min
Procedure: To determine the toxicity of chronic cytochalasin B administration, cytochalasin B was administered intravenously to Sprauge-Dawley rats for seven days (Table 12). Data regarding food consumption, body weights, hematology parameters, clinical chemistry parameters, coagulation profiles, organ weights, clinical observations, gross necropsy findings and histopathology were collected. […]

[3] = Seven day intravenous toxicity study; type: in vivo, beagle dogs; settings: seven consecutive days, 10080 min
[4] = tested on: swine coronary arteries; experiment: Dose-response study of balloon traumatized coronary arteries (morphometry); type: in vivo
[5] = tested on: left carotid artery; experiment: Inter-arterial infusion of crystals after balloon trauma (scintillation, autoradiography, morphometry); type: in vivo, Sprague-Dawley rats; settings: for present over the treated length of artery: 1 mg crystalline in 300 ml vehicle
Procedure: Another study employed twenty, male, Sprague-Dawley rats. The rats underwent balloon trauma to their left carotid artery, followed by inter-arterial infusion of a solution containing 1 mg crystalline cytochalasin B in […] vehicle (Hanks sterile salt solution with 0.5% Cremophor) or a diluent (saline) control. Animals were sacrificed immediately after infusion, and 2, 4, 7 and 14 days post-trauma and infusion. Post-sacrifice, the left and the right (control) carotid arteries were removed. Samples of arteries were obtained for quantitation of ^3H-cytochalasin B by oxidation and scintillation counting, histopathology, autoradiography and vascular morphometry. Histopathology documented uniform, circumferential balloon trauma in the arterial wall of the left carotid arteries.

[6] = tested on: Vascular smooth muscle cells (BO54); experiment: Scratch assay of smooth muscle cell migration; type: cell-based, baboon; set-up: key: - = no toxicity; +1 = minimal; +2 = mild; +3 = moderate; +4 = marked toxicity; settings: Day 1/3/6/8/10 = r6/r8/r10/r12/r14
Procedure: (§1) Scratch assays to determine the extent of smooth muscle cell migration inhibition by cytochalasin B were performed in accordance with the following protocol: • Vascular smooth muscle cells (BO54) were derived from explants of baboon aortic smooth muscle, as described in Example 10. The cells were grown in flat bottom, six well tissue culture plates, which hold about 5 ml of medium. The vascular smooth muscle cells were plated at 200,000 cells/well and placed at 37°C in a humidified 5% CO2 incubator for 18 hours. The wells were then scratched with a sterile portion of a single edge razor blade that was held by clamp or pliers and was brought aseptically into contact with the bottom of the well at a 90° angle. The cells from a small area along the scratch were removed by a sterile cotton tipped applicator while the blade was in contact with the bottom of the well. After incubation, the presence of cells in the "scratched" area is indicative of cell migration across the scratch line.
(§2) Briefly, a stock solution of cytochalasin B (Sigma Chemical Co.) in dimethyl sulfoxide (DMSO) at 1 mg/ml was prepared. Test dilutions of cytochalasin B or control medium were added. Each experiment included two sets of plates: A set: Test agent exposure for 1, 3, 6, 8 and 10 days only; and B set: Test agent exposure for 1, 3, 6, 8 and 10 days, followed by a seven day recovery time with control medium. Both sets of plates were fixed (10% formalin in PBS) and stained (0.02% crystal violet) at the end of the timed exposures. Test concentrations for cytochalasin B were 1, 0.1 and 0.01 µg/ml, and a negative medium control was included. Fresh medium and drug were supplied 3 times per week.
(§3) In this Table, "M" indicates Migration Grade, wherein - = no migration; +1 = minimal; +2 = mild; +3 = moderate; and +4 = marked (maximum density; limit of cell contact inhibition) migration of vascular smooth muscle cells into the cleared area adjacent to the scratch. In this Table, "T" denotes a morphological Toxicity Grade, wherein - = no toxicity; +1 = minimal; +2 = mild; +3 = moderate; and +4 = marked toxicity. The migration results are expressed as "Grade in the Cleared Area of the Well / Grade in an Undisturbed Region of the Well." The toxicity values represent a grade for all cells in each well.

[7] = tested on: Vascular smooth muscle cells (BO54); experiment: Scratch assay of smooth muscle cell migration; type: cell-based, baboon; set-up: key: - = no migration; +1 = minimal; +2 = mild; +3 = moderate; +4 = marked (maximum density; limit of cell contact inhibition) migration; settings: for Migration Grade in an Undisturbed Region of the Well / Migration Grade in the Cleared Area of the Well: Day 1/3/6/8/10 = r5/r7/r9/r11/r13; for morphological Toxicity Grade: Day 1/3/6/8/10 = r6/r8/r10/r12/r14, listed as CY[…]
Procedure: as §1, §2, §3

[8] = 7-day Recovery Post Exposure, 1.0 µg/mL

Structure (SMILES): C=C1[C@@H](C)[C@H]2[C@H](Cc3ccccc3)NC(=O)[C@]23OC(=O)/C=C/[C@H](O)CCC[C@@H](C)C/C=C/[C@H]3[C@@H]1O [cytochalasin B]
- organ with the highest amount ([1]; 50 mg/kg i.p.): highest amount of cytochalasin B was found in the liver
- remained in the peritoneal cavity or at the injection site ([1]; 50 mg/kg i.p.): About 75%
- maximum tolerated dose ([1]; may be administered every second day): 50 mg/kg
- dose without any indication of adverse effects or toxicity [2]: up to 600 µg/kg/day
- dose without any indication of adverse effects or toxicity [3]: up to 648 µg/kg/day
- Mean % Lumen Area ([4]; 0.1 µg/mL, 4 Days Post Surgery): 97.0%
- Mean % Lumen Area ([4]; 1.5 µg/mL, 4 Days Post Surgery): 101.7%
- Mean % Lumen Area ([4]; 1.5 µg/mL, 21 Days Post Surgery): 100.9%
- Mean % Lumen Area ([4]; 10µg/mL, 4 Days Post Surgery): 103.9%
- Mean % Lumen Area ([4]; 10 µg/mL, 21 Days Post Surgery): 110.9%
- myocardial or arterial lesions (histology) ([4]; 0.1, 1.5 or 10.0 µg/ml): did not result in myocardial or arterial lesions
- Mean % Lumen Area ([4]; 0.1 µ/mL, 21 Days Post Surgery): 98.0%
- neointima formation compared to diluent treated rats ([5]; crystalline, inter-arterial infusion): no statistically significant reduction in neointima formation
- present over the treated length of artery ([5]; day 0): approximately 8 ug
- present over the treated length of artery ([5]; day 2): less than 2 ng
- morphological Toxicity Grade ([6]; 7-day Recovery Post Exposure, 0.01 µg/mL): -
- morphological Toxicity Grade ([6]; 7-day Recovery Post Exposure, 0.1 µg/mL): -
- morphological Toxicity Grade ([6]; Continuous Exposure, 0.1 µg/mL, listed as CY[…]): -
- morphological Toxicity Grade ([6]; Continuous Exposure, 1.0 µg/mL, listed as CY[…]): +4
- Migration Grade in an Undisturbed Region of the Well [7, 8]: +3
- Migration Grade in the Cleared Area of the Well [7, 8]: +2
- morphological Toxicity Grade ([7]; Continuous Exposure, 0.1 µg/mL): +1
- Migration Grade in an Undisturbed Region of the Well ([7]; Continuous Exposure, 1.0 µg/mL): +2
- Migration Grade in the Cleared Area of the Well ([7]; Continuous Exposure, 1.0 µg/mL): -
- morphological Toxicity Grade ([7]; Continuous Exposure, 1.0 µg/mL): +3
